Assay [1] deals with T1, EGFR^L858R/T790M (Homo sapiens, UniProt P00533, L858R/T790M). The experiment in a line: biochemical.
The target in assay [2] is T2, EGFR^WT (Homo sapiens, UniProt P00533). The experiment in a line: biochemical.
For assay [3], the target named is T3, EGFR^L858R (Homo sapiens, UniProt P00533, L858R). The experiment in a line: biochemical.
Assay [4] concerns the target T3, EGFR^L858R. Description: Kinetic characterization. The class given is biochemical.
Assay [5] concerns the target T1, EGFR^L858R/T790M. The experiment in a line: Kinetic characterization. In kind it is biochemical.
Assay [6] concerns the target T2, EGFR^WT. Description: Kinetic characterization. The class given is biochemical.
The test system of assay [7] is kinases that harbor a cysteine comparable to C797 in the hinge region. Description: SelectScreen kinase profiling. In kind it is biochemical. As to conditions: compound concentration 1 μM; almost all cysteine-containing kinases (Table S1).
In assay [8] the target is T1, EGFR^L858R/T790M. Description: SelectScreen kinase profiling.
Assay [9] concerns the target EGFR^T790M (Homo sapiens, UniProt P00533, T790M). The experiment in a line: SelectScreen kinase profiling. The class given is biochemical.

The record followed here is PMC6018958 (ACS Omega, 2017).

As a reminder, the IC50 is the midpoint of a concentration-inhibition curve. Low values mean greater potency in that assay, high ones weaker potency in that assay. For orientation: Ki means a dissociation constant, usually derived from enzyme kinetics or from competition with a known ligand. A lower Ki goes with tighter binding. As a reminder, the kinact is the rate constant of inactivation at saturating inhibitor. Broadly, the kinact/KI is the second-order rate constant of inactivation. A word on the inhibition: it is the share of the control response that was lost under treatment.

T2 sequence (P00533 25-1210): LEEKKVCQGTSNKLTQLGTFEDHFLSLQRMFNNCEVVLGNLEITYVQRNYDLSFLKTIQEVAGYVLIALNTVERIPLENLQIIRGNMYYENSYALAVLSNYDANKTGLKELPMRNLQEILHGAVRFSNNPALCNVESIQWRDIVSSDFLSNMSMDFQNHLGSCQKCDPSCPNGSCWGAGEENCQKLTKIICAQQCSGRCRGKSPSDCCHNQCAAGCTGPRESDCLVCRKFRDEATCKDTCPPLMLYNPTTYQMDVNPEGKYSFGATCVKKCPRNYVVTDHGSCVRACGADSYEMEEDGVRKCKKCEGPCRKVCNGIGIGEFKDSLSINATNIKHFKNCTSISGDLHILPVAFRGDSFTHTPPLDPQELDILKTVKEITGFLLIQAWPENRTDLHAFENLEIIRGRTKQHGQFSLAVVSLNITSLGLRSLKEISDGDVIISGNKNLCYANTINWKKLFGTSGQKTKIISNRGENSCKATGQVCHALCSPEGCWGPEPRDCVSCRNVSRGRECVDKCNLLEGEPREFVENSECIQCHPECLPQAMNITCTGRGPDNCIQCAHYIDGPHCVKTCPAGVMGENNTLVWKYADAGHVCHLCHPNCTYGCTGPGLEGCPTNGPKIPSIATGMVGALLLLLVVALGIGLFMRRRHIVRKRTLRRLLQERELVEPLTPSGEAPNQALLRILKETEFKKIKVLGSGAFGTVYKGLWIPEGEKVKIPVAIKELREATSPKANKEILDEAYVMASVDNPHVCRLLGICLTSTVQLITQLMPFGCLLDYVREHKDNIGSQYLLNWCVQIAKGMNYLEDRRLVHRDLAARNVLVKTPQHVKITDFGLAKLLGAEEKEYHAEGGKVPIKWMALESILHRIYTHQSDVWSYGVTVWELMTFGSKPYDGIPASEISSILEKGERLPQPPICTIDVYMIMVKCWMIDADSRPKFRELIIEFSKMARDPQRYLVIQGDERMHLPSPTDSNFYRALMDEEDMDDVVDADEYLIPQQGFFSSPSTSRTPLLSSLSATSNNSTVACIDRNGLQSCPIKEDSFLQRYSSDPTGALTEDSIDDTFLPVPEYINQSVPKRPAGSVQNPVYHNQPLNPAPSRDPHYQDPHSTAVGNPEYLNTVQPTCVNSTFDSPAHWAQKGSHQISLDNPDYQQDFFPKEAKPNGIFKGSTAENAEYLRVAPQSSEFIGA
T1 sequence (P00533 25-1210 T790M/L858R): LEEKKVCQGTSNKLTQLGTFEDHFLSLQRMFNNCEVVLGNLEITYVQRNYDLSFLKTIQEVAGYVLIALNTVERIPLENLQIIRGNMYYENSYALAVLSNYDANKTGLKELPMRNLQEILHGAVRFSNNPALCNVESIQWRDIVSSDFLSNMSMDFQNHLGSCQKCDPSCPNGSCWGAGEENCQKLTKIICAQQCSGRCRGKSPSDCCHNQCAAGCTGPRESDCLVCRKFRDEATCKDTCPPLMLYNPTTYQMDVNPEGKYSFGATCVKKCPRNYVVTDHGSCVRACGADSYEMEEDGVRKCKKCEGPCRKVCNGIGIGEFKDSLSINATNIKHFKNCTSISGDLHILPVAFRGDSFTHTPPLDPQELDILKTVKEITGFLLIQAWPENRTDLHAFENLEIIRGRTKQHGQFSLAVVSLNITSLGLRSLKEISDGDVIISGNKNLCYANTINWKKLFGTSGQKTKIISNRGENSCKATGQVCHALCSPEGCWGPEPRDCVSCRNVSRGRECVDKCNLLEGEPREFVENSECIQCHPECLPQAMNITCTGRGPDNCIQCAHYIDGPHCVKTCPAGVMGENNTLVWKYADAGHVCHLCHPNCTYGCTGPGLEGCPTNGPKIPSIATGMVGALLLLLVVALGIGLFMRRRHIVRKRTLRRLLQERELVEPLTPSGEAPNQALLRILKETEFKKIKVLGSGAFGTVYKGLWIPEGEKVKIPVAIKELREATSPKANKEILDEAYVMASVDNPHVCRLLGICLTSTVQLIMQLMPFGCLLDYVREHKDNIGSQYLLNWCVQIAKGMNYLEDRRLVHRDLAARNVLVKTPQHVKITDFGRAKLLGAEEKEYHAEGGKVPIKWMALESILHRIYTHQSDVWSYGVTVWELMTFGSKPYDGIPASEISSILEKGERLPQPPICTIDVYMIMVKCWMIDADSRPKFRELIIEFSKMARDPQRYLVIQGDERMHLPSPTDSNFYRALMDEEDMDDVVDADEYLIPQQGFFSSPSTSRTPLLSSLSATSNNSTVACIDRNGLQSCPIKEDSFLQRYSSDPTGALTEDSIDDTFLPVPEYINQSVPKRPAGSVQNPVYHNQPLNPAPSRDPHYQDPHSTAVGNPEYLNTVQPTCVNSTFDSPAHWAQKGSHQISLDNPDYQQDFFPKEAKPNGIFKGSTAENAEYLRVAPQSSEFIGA
T3 sequence (P00533 25-1210 L858R): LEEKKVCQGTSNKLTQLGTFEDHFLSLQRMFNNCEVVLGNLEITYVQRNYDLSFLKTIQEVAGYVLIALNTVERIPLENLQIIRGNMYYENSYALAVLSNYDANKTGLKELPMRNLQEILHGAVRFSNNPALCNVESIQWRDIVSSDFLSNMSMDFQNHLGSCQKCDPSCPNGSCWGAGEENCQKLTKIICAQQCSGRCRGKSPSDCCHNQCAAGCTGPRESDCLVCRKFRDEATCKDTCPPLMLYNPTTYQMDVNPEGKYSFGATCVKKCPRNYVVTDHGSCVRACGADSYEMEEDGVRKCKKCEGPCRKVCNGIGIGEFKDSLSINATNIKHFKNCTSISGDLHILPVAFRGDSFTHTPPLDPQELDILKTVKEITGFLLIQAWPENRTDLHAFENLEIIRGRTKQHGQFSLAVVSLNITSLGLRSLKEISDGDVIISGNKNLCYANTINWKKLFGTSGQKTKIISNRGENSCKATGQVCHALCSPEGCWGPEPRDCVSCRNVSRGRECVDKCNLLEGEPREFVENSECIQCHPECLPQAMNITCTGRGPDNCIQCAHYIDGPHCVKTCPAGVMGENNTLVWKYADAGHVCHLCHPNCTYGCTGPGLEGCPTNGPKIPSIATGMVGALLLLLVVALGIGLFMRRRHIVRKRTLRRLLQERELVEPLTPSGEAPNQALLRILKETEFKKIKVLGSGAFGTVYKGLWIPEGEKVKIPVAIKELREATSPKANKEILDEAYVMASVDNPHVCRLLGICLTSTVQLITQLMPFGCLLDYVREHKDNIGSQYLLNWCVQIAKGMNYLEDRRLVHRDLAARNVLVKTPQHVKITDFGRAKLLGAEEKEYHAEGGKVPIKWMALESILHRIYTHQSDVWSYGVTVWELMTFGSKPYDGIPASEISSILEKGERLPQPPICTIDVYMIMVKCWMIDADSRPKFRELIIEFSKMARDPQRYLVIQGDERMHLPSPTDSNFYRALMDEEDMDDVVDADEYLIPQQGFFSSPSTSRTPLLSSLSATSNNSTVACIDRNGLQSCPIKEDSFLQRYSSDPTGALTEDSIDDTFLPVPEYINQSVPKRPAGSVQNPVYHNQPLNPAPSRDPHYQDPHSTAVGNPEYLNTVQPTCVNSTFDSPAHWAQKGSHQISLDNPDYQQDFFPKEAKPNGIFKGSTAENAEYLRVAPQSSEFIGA
EGFR^T790M, sequence (P00533 25-1210 T790M): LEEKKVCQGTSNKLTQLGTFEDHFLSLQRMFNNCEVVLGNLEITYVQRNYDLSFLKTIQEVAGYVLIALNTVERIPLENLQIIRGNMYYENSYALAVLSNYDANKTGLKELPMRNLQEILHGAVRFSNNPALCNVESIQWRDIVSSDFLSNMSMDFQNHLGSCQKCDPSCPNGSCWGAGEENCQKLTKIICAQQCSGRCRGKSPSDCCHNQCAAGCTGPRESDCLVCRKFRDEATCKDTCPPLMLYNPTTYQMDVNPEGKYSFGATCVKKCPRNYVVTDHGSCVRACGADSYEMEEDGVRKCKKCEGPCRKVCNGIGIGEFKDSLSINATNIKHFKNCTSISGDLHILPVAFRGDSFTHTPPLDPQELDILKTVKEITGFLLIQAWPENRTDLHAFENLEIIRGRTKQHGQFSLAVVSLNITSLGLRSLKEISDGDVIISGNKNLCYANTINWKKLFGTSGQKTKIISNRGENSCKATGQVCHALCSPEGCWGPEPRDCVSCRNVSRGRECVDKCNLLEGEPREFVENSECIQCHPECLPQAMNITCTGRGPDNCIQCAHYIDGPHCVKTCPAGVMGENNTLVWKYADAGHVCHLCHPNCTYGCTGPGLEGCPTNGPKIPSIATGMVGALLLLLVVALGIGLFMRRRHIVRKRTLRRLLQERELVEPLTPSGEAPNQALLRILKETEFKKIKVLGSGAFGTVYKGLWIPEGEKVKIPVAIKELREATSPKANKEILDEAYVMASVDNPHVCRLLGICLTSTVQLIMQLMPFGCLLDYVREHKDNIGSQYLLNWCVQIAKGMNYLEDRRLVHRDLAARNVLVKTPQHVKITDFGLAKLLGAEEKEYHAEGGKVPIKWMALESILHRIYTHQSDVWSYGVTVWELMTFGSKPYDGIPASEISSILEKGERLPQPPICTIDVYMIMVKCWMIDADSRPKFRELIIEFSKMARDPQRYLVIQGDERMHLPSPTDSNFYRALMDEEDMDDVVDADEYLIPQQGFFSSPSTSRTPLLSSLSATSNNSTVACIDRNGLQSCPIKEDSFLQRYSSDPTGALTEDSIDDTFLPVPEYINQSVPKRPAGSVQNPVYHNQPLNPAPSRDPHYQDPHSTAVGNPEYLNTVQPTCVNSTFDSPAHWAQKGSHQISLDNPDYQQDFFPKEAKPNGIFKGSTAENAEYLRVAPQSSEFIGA

In the case of `N#C/C(=C\C1CC1)C(=O)N1CCC[C@@H](n2nc(-c3ccccc3)c3c(N)ncnc32)C1` [1a, (R,E)-2-(3-(4-Amino-3-phenyl-1H-pyrazolo[3,4-d]pyrimidin-1-yl)piperidine-1-carbonyl)-3-cyclopropylacrylonitrile], the IC50 in [1] turned out to be 4540 ± 543 nM; in assay [2], 5380 ± 3890 nM; in [3], 229 ± 62 nM.

With `N#C/C(=C\C1CC1)C(=O)N1CCC[C@@H](n2nc(-c3cccc(C(F)(F)F)c3)c3c(N)ncnc32)C1` [1b, (R,E)-2-(3-(4-Amino-3-(3-(trifluoromethyl)phenyl)-1H-pyrazolo[3,4-d]pyrimidin-1-yl)piperidine-1-carbonyl)-3-cyclopropylacrylonitrile], the figures for the IC50 in [1], in assay [2] and in assay [3] were 2540 ± 420 nM, over 10000 nM and 385 ± 207 nM, respectively.

For the compound `N#C/C(=C\C1CC1)C(=O)N1CCC[C@@H](n2nc(-c3cccc4ccccc34)c3c(N)ncnc32)C1` [1c, (R,E)-2-(3-(4-Amino-3-(naphthalen-1-yl)-1H-pyrazolo[3,4-d]pyrimidin-1-yl)piperidine-1-carbonyl)-3-cyclopropylacrylonitrile], the Ki in assay [4] amounted to 14 ± 2 nM; in assay [5], 15 ± 3 nM; in assay [6], 64 ± 1 nM. Further, the kinact in assay [4] was 0.000667 s⁻¹; in assay [5] it was 0.00183 s⁻¹; in assay [6] it was 0.0005 s⁻¹. For the same compound, the kinact/KI amounted to 680000 ± 250000 M⁻¹ s⁻¹ in [4], 730000 ± 160000 M⁻¹ s⁻¹ in assay [5] and 10000 ± 10000 M⁻¹ s⁻¹ in assay [6]. Further, the IC50 came to 80 ± 51 nM in [1] and 102 ± 75 nM in [2].

Take `N#C/C(=C\C1CC1)C(=O)N1CCC[C@@H](n2nc(-c3cnc4[nH]ccc4c3)c3c(N)ncnc32)C1` [1d, (R,E)-2-(3-(4-Amino-3-(1H-pyrrolo[2,3-b]pyridin-5-yl)-1H-pyrazolo[3,4-d]pyrimidin-1-yl)piperidine-1-carbonyl)-3-cyclopropylacrylonitrile]: the inhibition entry in assay [7] was “more than 50%”. Also, the inhibition constant (Ki) in [4] is 37 ± 6 nM; in assay [5], 51 ± 2 nM; in assay [6], 265 ± 1 nM. Further, the results for the kinact in assay [4], in assay [5] and in assay [6] were 0.003 s⁻¹, 0.00283 s⁻¹ and 0.000667 s⁻¹, respectively. Besides, the values for the kinact/KI in assay [4], in [5] and in [6] were 200000 ± 10000 M⁻¹ s⁻¹, 50000 ± 20000 M⁻¹ s⁻¹ and 10000 ± 10000 M⁻¹ s⁻¹, respectively. For the same compound, the IC50 in assay [1] was 20 ± 13 nM; in assay [2], 96 ± 26 nM; in assay [3] it was 10 ± 8 nM. Moreover, the inhibition at 1 µM in assay [8] and in assay [9] was about 90% each time.

Consider `Cn1cc(-c2nn([C@@H]3CCCN(C(=O)/C(C#N)=C/C4CC4)C3)c3ncnc(N)c23)c2ccccc21` [1e, (R,E)-2-(3-(4-Amino-3-(1-methyl-1H-indol-3-yl)-1H-pyrazolo[3,4-d]pyrimidin-1-yl)piperidine-1-carbonyl)-3-cyclopropylacrylonitrile], for which the Ki stood at 79 ± 9 nM in [4], 83 ± 10 nM in assay [5] and 1670 ± 450 nM in assay [6]. Besides, the kinact in assay [4] was 0.002 s⁻¹; in [5], 0.00217 s⁻¹; in assay [6] it was 0.00283 s⁻¹. The kinact/KI came to 260000 ± 70000 M⁻¹ s⁻¹ in [4], 360000 ± 20000 M⁻¹ s⁻¹ in [5] and 10000 ± 10000 M⁻¹ s⁻¹ in [6]. The IC50 is 213 ± 49 nM in assay [1], 338 ± 69 nM in assay [2] and 85 ± 34 nM in assay [3].
